{"source": "patent US9952300B2", "about": "“Dynamic contrast enhanced MRI method and agents for the assessment of the macromolecular transport within pathologic tissues” (BRACCO IMAGING S.P.A., priority 2012, dated 2018)", "test_system": "A431 human epidermoid carcinoma xenografts", "test": "DCE-MRI with B22956/1 in A431 xenografts 24 h after PTX or vehicle (Example 5)", "assay_type": "in vivo, NCR athymic nude mice", "protocol": "Human epidermoid carcinoma cell line (A431) (supplied by ATCC) were cultured in DMEM (Dulbecco's Modified Eagle Medium) High Glucose medium (4.5 g/L glucose) (Sigma-Aldrich, Steinheim, Germany), supplemented with 10% heat-inactivated foetal bovine serum (Lonza, Verviers, Belgium), 2 mM glutamine (Lonza, Verviers, Belgium), 100 IU/mL penicillin and 100 μg/mL streptomycin (Lonza, Verviers, Belgium) and maintained in a humidified atmosphere with 5% CO2 at 37° C. Exponentially growing cells were harvested and washed two times with PBS. Two million A431 cells were resuspended in 0.1 mL PBS and injected subcutaneously in the right and left flank of each of the 6 week old female mice. Tumors development were followed daily after inoculation, initially by palpation and by caliper once the mass will be established, until the day of the sacrifice. Mice were distributed randomly into 2 groups (Treated and Control) on the day of initial drug treatment when the average tumor diameter reached 7-8 mm, measured by caliper.\nPaclitaxel (PTX) (Indena S.p.A., Milan, Italy): PTX solution was prepared in 50% Cremophor EL and 50% ethanol as described in Example 4 and further diluted in saline immediately before use to a final concentration of 2 mg/mL. PTX was administered intravenously (i.v., singular administration) at a dose of 20 mg/kg.\nTo this extent, 8 mice were divided into 2 groups; 2 animals of each of the two obtained groups were treated with PTX and 2 with vehicle (CTRL). Treatments started 14 days after the tumor implant, when the tumor reached a diameter in the range 7-8 mm, measured by caliper. The animals were administered with PTX or with CTRL at day 14 from the tumor implant (considered as DAY1). 24 hours after the treatment with PTX or CTRL (DAY2) each animal was injected with B22956/1 (used as non-limiting example of contrast agent according to the invention) and imaged with DCE-MRI. MRI imaging was performed pre-contrast and at different time points post-contrast agents administration. […] At DAY3 all the mice were imaged in vivo by Optical Imaging (01); then FITC-Albumin (10 mg/mL) was injected and 5 minutes later the animals were sacrificed. Tumors were excised and a second Optical Imaging acquisition was performed ex vivo. Finally tumors were prepared for the histological examination.\nB22956/1, (Bracco Imaging S.p.A., obtained as above referred) was used as MRI contrast agent (CA). B22956/1 was intravenously injected at the dose of 100 μmol/kg, with an administration volume of 4 mL/kg.\n24 hours after the treatment with PTX or CTRL each animal was injected with the CA (B22956/1) and imaged with DCE-MRI. The contrast agent was injected intravenously at an injection rate of about 1 mL/min through a catheter placed in the tail vein of the animal. For MR imaging experiments, animals were pre-anaesthetized with isofluorane gas (about 1%) in a mixture of 33% O2 and 66% N2O and the anesthesia was then maintained by adjustment of gas level in function of breath rate. MRI imaging was performed at different time points post-contrast agents administration. In particular, pre-contrast coronal and axial Rare T2-weighted anatomical images were acquired with the optimized parameters for high resolution with a good contrast, to detect the tumour mass. 3D FLASH images (Fast Low Angle Shot; TR about 6-7 milliseconds) with variable flip angle θ (FA=5-90° were acquired before contrast agent injection to estimate the tumour and muscle longitudinal relaxation time by using matrix 128×128×8, slice thickness ˜1.5 mm, FOV ˜3.0×3.0 cm. The same sequences (FA=20°, TR about 6-7 milliseconds) were then acquired to follow CA dynamic in tumor and blood vessels after CA i.v. injection. Flow artifacts were avoided by placing two thick saturation bands just above and below the measured slices. […]", "key": {"[1]": {"settings": "A431 tumors 24 h after PTX 20 mg/kg i.v., mean of 8 tumors"}}, "note": "Marks after values point to notes of the source that are not given here.", "data": [{"smiles": "CC(=O)O[C@H]1C(=O)[C@@]2(C)[C@H]([C@H](OC(=O)c3ccccc3)[C@]3(O)C[C@H](OC(=O)[C@H](O)[C@@H](NC(=O)c4ccccc4)c4ccccc4)C(C)=C1C3(C)C)[C@]1(OC(C)=O)CO[C@@H]1C[C@@H]2O", "note": "[PTX, Paclitaxel]", "values": [{"measurement": "AUC10.20 (of B22956/1), Mean", "setting": "A431 tumors 24 h after PTX 20 mg/kg i.v., 10 to 20 min post injection, mean of 8 tumors", "result": "27*"}, {"measurement": "AUC20.30 (of B22956/1), Mean", "setting": "A431 tumors 24 h after PTX 20 mg/kg i.v., 20 to 30 min post injection, mean of 8 tumors", "result": "25.3**"}, {"measurement": "ktrans (of B22956/1), Mean", "setting": "A431 tumors 24 h after PTX 20 mg/kg i.v., B22956/1 100 μmol/kg, mean of 8 tumors", "result": "0.0255*"}, {"measurement": "AVGENH (of B22956/1), Mean", "setting": "[1]", "result": "54*"}, {"measurement": "EARLYAUCRATIO (of B22956/1), Mean", "setting": "[1]", "result": 0.036}, {"measurement": "IAUC1 (of B22956/1), Mean", "setting": "[1]", "result": 0.8}, {"measurement": "LATEAUCRATIO (of B22956/1), Mean", "setting": "[1]", "result": "1.14**"}, {"measurement": "fPV (of B22956/1), Mean", "setting": "[1]", "result": 0.038}, {"measurement": "kep (of B22956/1), Mean", "setting": "[1]", "result": 0.112}]}, {"smiles": "C[C@H](CCC(=O)[O-])[C@H]1CC[C@H]2[C@@H]3CC[C@@H]4C[C@@H](NC(=O)CC[C@@H](C(=O)[O-])N(CCN(CC(=O)[O-])CC(=O)[O-])CCN(CC(=O)[O-])CC(=O)[O-])CC[C@]4(C)[C@H]3C[C@H](O)[C@]12C.[Gd+3].[Na+].[Na+].[Na+]", "note": "[B22956/1, Gadocoletic acid trisodium salt]", "values": [{"measurement": "extravasation of the contrast agent within the first minute after injection", "setting": "mouse, in vivo", "result": "negligible"}]}]}
